Source: US8101647B2, “Spiro-oxindole compounds and their use as therapeutic agents” (Xenon Pharmaceuticals Inc., priority 2008, dated 2012)

What was measured:
CYP3A4 = biological target: T1, CYP3A4 (Homo sapiens, UniProt P08684); test: Cytochrome P450 (CYP450) inhibition assay, fluorescence-based; type: in vitro ADME; settings: recombinant CYP3A4 (P450 Baculosomes), probe Vivid substrate (fluorogenic)
T1 construct: purchased Invitrogen Corporation (Vivid CYP450 Screening Kit)
T1 sequence (P08684 whole entry): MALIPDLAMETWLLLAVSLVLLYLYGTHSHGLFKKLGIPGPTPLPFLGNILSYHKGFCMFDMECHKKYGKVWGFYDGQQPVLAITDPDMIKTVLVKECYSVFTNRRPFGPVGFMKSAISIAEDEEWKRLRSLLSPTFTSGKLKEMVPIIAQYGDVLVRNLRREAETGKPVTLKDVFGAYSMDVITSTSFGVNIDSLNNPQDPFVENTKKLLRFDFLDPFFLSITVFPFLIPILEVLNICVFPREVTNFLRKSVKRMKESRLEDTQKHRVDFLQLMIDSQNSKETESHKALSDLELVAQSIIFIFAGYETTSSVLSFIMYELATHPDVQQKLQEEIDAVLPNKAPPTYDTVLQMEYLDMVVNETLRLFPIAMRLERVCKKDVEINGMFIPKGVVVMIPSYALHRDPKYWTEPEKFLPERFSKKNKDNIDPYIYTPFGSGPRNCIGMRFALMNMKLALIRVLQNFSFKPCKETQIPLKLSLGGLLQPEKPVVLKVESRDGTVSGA

SMILES	melting point [°C]	inhibition at 10 µM (CYP3A4) [%]
Cl.O=C1N(Cc2ccc(N[C@@H]3CCNC3)cc2)c2ccccc2C12COc1cc3c(cc12)OCO3 (stereo partly shown)	190 to 195	–
CC(C)(C)OC(=O)N1CC[C@@H](Nc2ccc(CN3C(=O)C4(COc5cc6c(cc54)OCO6)c4ccccc43)cc2)C1 (stereo partly drawn) [Example 5, tert-butyl (3R)-3-({4-[(2′-oxospiro[furo[2,3-f][1,3]benzodioxole-7,3′-indol]-1′(2′H)-yl)methyl]phenyl}-amino)pyrrolidine-1-carboxylate]	115 to 118	–
O=C1N(Cc2ccc(N[C@@H]3CCNC3)cc2)c2ccccc2C12COc1cc3c(cc12)OCO3 (stereo partly drawn) [Example 6, 1′-{4-[(3R)-pyrrolidin-3-ylamino]benzyl}spiro[furo[2,3-f][1,3]benzodioxole-7,3′-indol]-2′(1′H)-one]	118 to 121	–

Continued, values first:

melting point [°C]	inhibition at 10 µM (CYP3A4) [%]	SMILES
265 to 266	< 50	O=C(O)COc1ccc(CN2C(=O)C3(COc4cc5c(cc43)CCO5)c3ccccc32)cc1 (stereo not shown) [Example 15.1, {4-[(2′-oxo-5,6-dihydrospiro[benzo[1,2-b:5,4-b′]difuran-3,3′-indol]-1′(2′H)-yl)methyl]phenoxy}acetic acid]
223 to 224	< 50	O=C(O)COc1ccc(CN2C(=O)C3(COc4cc5c(cc43)OCCO5)c3ccccc32)cc1 (stereo not shown) [Example 15.2, {4-[(2′-oxo-2,3-dihydrospiro[furo[2,3-g][1,4]benzodioxine-8,3′-indol]-1′(2′H)-yl)methyl]phenoxy}acetic acid]
